Data reported in PubChem BioAssay (NCI).
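Step 1: Grow cells in 96-well plates. Step 2: Expose to compound for 48 hours at 5 concentrations. Step 3: Interpolate endpoints linearly; if unreached, use highest concentration. Here, GI50 denotes the concentration required for 50% inhibition of growth. TGI denotes the concentration required for complete inhibition of growth.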

Assays:
Experiment in all cases: NCI tumour cell line growth inhibition, 48 h
KM12 colon = system: KM12 colon
HOP-62 NSCLC = system: HOP-62 NSCLC
ACHN renal = system: ACHN renal
EKVX NSCLC = system: EKVX NSCLC
SN12C renal = system: SN12C renal
HCC-2998 colon = system: HCC-2998 colon
SK-MEL-28 melanoma = system: SK-MEL-28 melanoma
BT-549 breast = system: BT-549 breast
SK-MEL-5 melanoma = system: SK-MEL-5 melanoma
HOP-92 NSCLC = system: HOP-92 NSCLC
CAKI-1 renal = system: CAKI-1 renal
NCI-H522 lung = system: NCI-H522 lung
HCT-116 colon = system: HCT-116 colon
SF-295 CNS = system: SF-295 CNS
COLO 205 colon = system: COLO 205 colon
SF-539 CNS = system: SF-539 CNS
HS 578T breast = system: HS 578T breast
MDA-MB-231 breast = system: MDA-MB-231 breast
HT29 colon = system: HT29 colon
MCF7 breast = system: MCF7 breast
SW-620 colon = system: SW-620 colon
RPMI-8226 leukemia = system: RPMI-8226 leukemia
PC-3 prostate = system: PC-3 prostate
M14 melanoma = system: M14 melanoma
NCI/ADR-RES ovarian = system: NCI/ADR-RES ovarian
NCI-H23 lung = system: NCI-H23 lung
CCRF-CEM leukemia = system: CCRF-CEM leukemia
SK-MEL-2 melanoma = system: SK-MEL-2 melanoma
OVCAR-8 ovarian = system: OVCAR-8 ovarian
U251 CNS = system: U251 CNS
UO-31 renal = system: UO-31 renal
A549 NSCLC = system: A549 NSCLC
SF-268 CNS = system: SF-268 CNS
MOLT-4 leukemia = system: MOLT-4 leukemia
LOX IMVI melanoma = system: LOX IMVI melanoma
786-0 renal = system: 786-0 renal
OVCAR-4 ovarian = system: OVCAR-4 ovarian
IGROV1 ovarian = system: IGROV1 ovarian
HCT-15 colon = system: HCT-15 colon
TK-10 renal = system: TK-10 renal
RXF 393 renal = system: RXF 393 renal
A498 renal = system: A498 renal
SR leukemia = system: SR leukemia
SK-OV-3 ovarian = system: SK-OV-3 ovarian
DU-145 prostate = system: DU-145 prostate
NCI-H460 lung = system: NCI-H460 lung
NCI-H226 lung = system: NCI-H226 lung
K-562 leukemia = system: K-562 leukemia
SNB-75 CNS = system: SNB-75 CNS
OVCAR-5 ovarian = system: OVCAR-5 ovarian
T-47D breast = system: T-47D breast
UACC-62 melanoma = system: UACC-62 melanoma
HL-60(TB) leukemia = system: HL-60(TB) leukemia
MALME-3M melanoma = system: MALME-3M melanoma
UACC-257 melanoma = system: UACC-257 melanoma
MDA-MB-435 = system: MDA-MB-435
OVCAR-3 ovarian = system: OVCAR-3 ovarian
SNB-19 CNS = system: SNB-19 CNS

## Cc1ccc(NC(=O)c2cccc(N(C)C)c2)cc1NC(=O)c1ccc(O)cc1
KM12 colon
  GI50: 54.9 µM
  TGI: > 100 µM
HOP-62 NSCLC
  GI50: 54.2 µM
  TGI: > 100 µM
ACHN renal
  GI50: > 63.6 µM
  TGI: > 100 µM
EKVX NSCLC
  GI50: > 79.7 µM
  TGI: > 100 µM
SN12C renal
  GI50: 55 µM
  TGI: > 100 µM
HCC-2998 colon
  GI50: 74.8 µM
  TGI: > 100 µM
SK-MEL-28 melanoma
  GI50: > 50.1 µM
  TGI: > 100 µM
BT-549 breast
  GI50: > 64 µM
  TGI: > 100 µM
SK-MEL-5 melanoma
  GI50: 28.5 µM
  TGI: > 65.8 µM
HOP-92 NSCLC
  GI50: > 52.7 µM
  TGI: > 100 µM
CAKI-1 renal
  GI50: 52.8 µM
  TGI: > 100 µM
NCI-H522 lung
  GI50: 37.1 µM
  TGI: > 88.2 µM
HCT-116 colon
  GI50: > 59.4 µM
  TGI: > 100 µM
SF-295 CNS
  GI50: 37.6 µM
  TGI: > 100 µM
COLO 205 colon
  GI50: > 64.7 µM
  TGI: > 100 µM
SF-539 CNS
  GI50: 41 µM
  TGI: > 100 µM
HS 578T breast
  GI50: 63.6 µM
  TGI: > 100 µM
MDA-MB-231 breast
  GI50: 33 µM
  TGI: > 93.6 µM
HT29 colon
  GI50: > 57.3 µM
  TGI: > 100 µM
MCF7 breast
  GI50: 52 µM
  TGI: > 100 µM
SW-620 colon
  GI50: > 75.5 µM
  TGI: > 100 µM
RPMI-8226 leukemia
  GI50: > 63.1 µM
  TGI: > 100 µM
PC-3 prostate
  GI50: > 61.7 µM
  TGI: > 100 µM
M14 melanoma
  GI50: > 64.6 µM
  TGI: > 100 µM
NCI/ADR-RES ovarian
  GI50: > 72 µM
  TGI: > 100 µM
NCI-H23 lung
  GI50: > 61.9 µM
  TGI: > 100 µM
CCRF-CEM leukemia
  GI50: 16.6 µM
  TGI: > 100 µM
SK-MEL-2 melanoma
  GI50: 14.1 µM
  TGI: 39.2 µM
OVCAR-8 ovarian
  GI50: 53.2 µM
  TGI: > 100 µM
U251 CNS
  GI50: > 68.8 µM
  TGI: > 100 µM
UO-31 renal
  GI50: > 73.4 µM
  TGI: > 100 µM
A549 NSCLC
  GI50: 61.4 µM
  TGI: > 100 µM
SF-268 CNS
  GI50: 44.6 µM
  TGI: > 100 µM
MOLT-4 leukemia
  GI50: > 72.4 µM
  TGI: > 100 µM
LOX IMVI melanoma
  GI50: > 62 µM
  TGI: > 100 µM
786-0 renal
  GI50: > 71.5 µM
  TGI: > 100 µM
OVCAR-4 ovarian
  GI50: 38.6 µM
  TGI: > 100 µM
IGROV1 ovarian
  GI50: > 85.8 µM
  TGI: > 100 µM
HCT-15 colon
  GI50: 53.3 µM
  TGI: > 100 µM
TK-10 renal
  GI50: > 70 µM
  TGI: > 100 µM
RXF 393 renal
  GI50: 38 µM
  TGI: > 66.1 µM
A498 renal
  GI50: > 83.6 µM
  TGI: > 100 µM
SR leukemia
  GI50: 31.5 µM
  TGI: > 100 µM
SK-OV-3 ovarian
  GI50: 65.7 µM
  TGI: > 100 µM
DU-145 prostate
  GI50: 62.6 µM
  TGI: > 100 µM
NCI-H460 lung
  GI50: 45.2 µM
  TGI: > 100 µM
NCI-H226 lung
  GI50: > 71.4 µM
  TGI: > 100 µM
K-562 leukemia
  GI50: 42.7 µM
  TGI: > 100 µM
SNB-75 CNS
  GI50: 26.3 µM
  TGI: > 81.8 µM
OVCAR-5 ovarian
  GI50: > 82.4 µM
  TGI: > 100 µM
T-47D breast
  GI50: > 48.7 µM
  TGI: > 79.2 µM
UACC-62 melanoma
  GI50: 34 µM
  TGI: 99.4 µM
HL-60(TB) leukemia
  GI50: 46.3 µM
  TGI: > 100 µM
MALME-3M melanoma
  GI50: > 75.9 µM
  TGI: > 100 µM
UACC-257 melanoma
  GI50: > 68.2 µM
  TGI: > 100 µM
MDA-MB-435
  GI50: 52.3 µM
  TGI: > 100 µM
OVCAR-3 ovarian
  GI50: 67.3 µM
  TGI: > 100 µM
SNB-19 CNS
  GI50: 51.1 µM
  TGI: > 100 µM
